Assay results from US9975870B2, “5,6-dimethoxy-1,1-dioxobenzo[b]thiophene-2-methyloxycarbonyl (DM-Bsmoc) and related amino-protecting groups” (MASSACHUSETTS, UNIVERSITY OF, priority 2013, dated 2018).

Assay: Deblocking of substituted Bsmoc p-chloroaniline (R-Bsmoc-PCA) urethanes with piperidine, 1H-NMR monitoring
Assay type: physicochemical
Settings: 2 eq piperidine in CDCl3, 1H-NMR analysis; approximate values
Excerpt: As an electron-withdrawing substituent the MeSO2 group also enhances the stability of the benzo[b]thiophene-2-methyl system toward acidic reagents and in addition enhances the speed of the deblocking step. […] Tables 1A and 1B show the approximate half times for the reaction of substituted Bsmoc p-chloroaniline derivatives with 2 eq of piperidine in CDCl3 according to ^1H-NMR analysis.
Tables 1A and 1B. Approximate half times for the reaction of R-Bsmoc-PCA urethane and piperidine

SMILES | t1/2 2 eq piperidine in CDCl3 (approximate half time for the reaction of R-Bsmoc-PCA urethane and piperidine)
CC(=O)Nc1ccc2c(c1)C=C(COC(=O)Nc1ccc(Cl)cc1)S2(=O)=O [5-Ac—NH-Bsmoc-PCA] | 3 min
Cc1cccc2c1C=C(COC(=O)Nc1ccc(Cl)cc1)S2(=O)=O [4-Me-Bsmoc-PCA] | 150 min
O=C(Nc1ccc(Cl)cc1)OCC1=Cc2cc(Cl)ccc2S1(=O)=O [5-Cl-Bsmoc-PCA] | 2 min
COc1cc2c(cc1OC)S(=O)(=O)C(COC(=O)Nc1ccc(Cl)cc1)=C2 [5,6-MeO-Bsmoc-PCA] | 3 to 4 min
CC1=C(COC(=O)Nc2ccc(Cl)cc2)S(=O)(=O)c2ccccc21 [3-Me-Bsmoc-PCA] | 360 min

Next, values leading:

t1/2 2 eq piperidine in CDCl3 (approximate half time for the reaction of R-Bsmoc-PCA urethane and piperidine) | SMILES
<1 min | CS(=O)(=O)c1ccc2c(c1)C=C(COC(=O)Nc1ccc(Cl)cc1)S2(=O)=O [5-MeSO2-Bsmoc-PCA]
<1 min | O=C(Nc1ccc(Cl)cc1)OCC1=Cc2cc([N+](=O)[O-])ccc2S1(=O)=O [5-NO2-Bsmoc-PCA]
2 min | O=C(Nc1ccc(Cl)cc1)OCC1=Cc2ccc(Cl)cc2S1(=O)=O [6-Cl-Bsmoc-PCA]
6 to 7 min | Cc1ccc2c(c1)C=C(COC(=O)Nc1ccc(Cl)cc1)S2(=O)=O [5-Me-Bsmoc-PCA]
6 to 7 min | O=C(Nc1ccc(Cl)cc1)OCC1=Cc2ccccc2S1(=O)=O [Bsmoc-PCA, reference compound]
<1 min | CS(=O)(=O)c1ccc2c(c1)S(=O)(=O)C(COC(=O)Nc1ccc(Cl)cc1)=C2 [6-MeSO2-Bsmoc-PCA]

Same assay, conditions: treatment with piperidine in CDCl3, NMR monitoring

speed of deblocking relative to the unsubstituted analog (Bsmoc-NHC6H4-Cl-p) | SMILES
about six times more readily | CS(=O)(=O)c1ccc2c(c1)C=C(COC(=O)Nc1ccc(Cl)cc1)S2(=O)=O [5-MeSO2-Bsmoc-PCA]
